In patent US20010051179A1, “METHOD FOR PREVENTING THE SPREAD OF INFECTIOUS MICROORGANISMS USING CYANOACRYLATE” (priority 1996, published 2001):

How the values were obtained:
[1] = tested on: Herpes Simplex virus; assay: Twice-daily coating of open Herpes Simplex lip sores with cyanoacrylate (case reports); type: in vivo, human
From the text: A person had open sores on their lower lip from which a clear liquid was exuding. The sores were diagnosed as resulting from the Herpes Simplex virus. Their initial office treatment consisted of swabbing the open sores with n-butyl-cyanoacrylate using a surgical swab until the sores and surrounding tissue were completely covered. They were given a supply of n-butyl-cyanoacrylate and surgical paddles for self-application and instructed on their use. They were cautioned not to close their lips or press them together after applying the n-butyl-cyanoacrylate for two to three minutes so that the coating over the sores would be completely dry.
An individual had open sores on their lip from which a clear liquid was exuding. The sores were diagnosed as Herpes Simplex virus.
An individual had open sores on their lip from which a clear liquid was exuding. The sores were diagnosed as resulting from the Herpes Simplex virus. They were instructed to coat the sores with 2 acetyl cyanoacrylate using a surgical swab until the sores and surrounding tissue were completely covered.
An individual had open sores on their lip from which a clear liquid was exuding. The sores were diagnosed as resulting from the Herpes Simplex virus. They were instructed to coat the sores with octyl-cyanoacrylate using a surgical swab until the sores and surrounding tissue were completely covered.

[2] = tested on: Herpes Simplex virus; assay: Twice-daily coating of a Herpes Simplex prodrome on the lip with cyanoacrylate (case report); type: in vivo, human; conditions: itching prodrome on lower lip, topical coating twice daily for three days
From the text: Before the open Herpes sore forms, an area where the sore will form becomes sensitive and itchy, and is known as a prodrome. The application of cyanoacrylate to the prodrome prevents the sore from forming. The cyanoacrylate can also be applied in the same manner as previously described to the prodrome.
A person had itching on their lower lip. The itching was diagnosed as resulting from a prodrome of the Herpes Simplex virus. Their initial office treatment consisted of being told to swab the prodrome with n-butyl-cyanoacrylate using a surgical swab until the prodrome and surrounding tissue were completely covered. They were given a supply of n-butyl-cyanoacrylate and surgical paddles for self-application and instructed on their use.

[3] = topical coating twice daily for three days

Compound	state of the open sores (exudation of clear liquid) at end of treatment [1, 3]	state of the open sores (exudation of clear liquid) at end of treatment ([1]; topical coating twice daily for several days)	outcome of prodrome (sore formation) [2]
2 acetyl cyanoacrylate	no longer exuding		
C=C(C#N)C(=O)OCC [ethyl cyanoacrylate]		no longer exudating	
C=C(C#N)C(=O)OCCCC [n-butyl-cyanoacrylate]	no longer exudating		prodrome disappeared and no sores formed or exuded
C=C(C#N)C(=O)OCCCCCCCC [octyl-cyanoacrylate]	no longer exuding		
